In ChEMBL document CHEMBL1139552, “Naphthamidine urokinase plasminogen activator inhibitors with improved pharmacokinetic properties” (Bioorg Med Chem Lett, 2005):

Columns and labels:
Plasminogen = Plasminogen (Homo sapiens, UniProt P00747); experiment: Binding affinity value against plasmin
Trypsin = Trypsin (Sus scrofa, UniProt P00761); experiment: Binding affinity value against trypsin
[1] = Binding affinity value against thrombin
[2] = Area under the curve time curve value in sprague dawley rat was determined at a dosage of 3 mg/kg; assay type: ADME, organism-based; design: dose 3 mg/kg; settings: in vivo
[3] = Terminal half life value in sprague dawley rat was determined at a dosage of 3 mg/kg; assay type: ADME, organism-based; design: dose 3 mg/kg; settings: in vivo
[4] = Bioavailability in rat (Sprague-Dawley) (dose 10 mg/kg); assay type: ADME, organism-based; settings: in vivo
[5] = Volume distribution value in sprague dawley rat was determined at a dosage of 3 mg/kg; assay type: ADME, organism-based; design: dose 3 mg/kg; settings: in vivo
[6] = target: Tissue-type plasminogen activator (Homo sapiens, UniProt P00750); experiment: Binding affinity value against Tissue plasminogen activator
Tissue-type plasminogen activator, sequence (P00750 whole entry): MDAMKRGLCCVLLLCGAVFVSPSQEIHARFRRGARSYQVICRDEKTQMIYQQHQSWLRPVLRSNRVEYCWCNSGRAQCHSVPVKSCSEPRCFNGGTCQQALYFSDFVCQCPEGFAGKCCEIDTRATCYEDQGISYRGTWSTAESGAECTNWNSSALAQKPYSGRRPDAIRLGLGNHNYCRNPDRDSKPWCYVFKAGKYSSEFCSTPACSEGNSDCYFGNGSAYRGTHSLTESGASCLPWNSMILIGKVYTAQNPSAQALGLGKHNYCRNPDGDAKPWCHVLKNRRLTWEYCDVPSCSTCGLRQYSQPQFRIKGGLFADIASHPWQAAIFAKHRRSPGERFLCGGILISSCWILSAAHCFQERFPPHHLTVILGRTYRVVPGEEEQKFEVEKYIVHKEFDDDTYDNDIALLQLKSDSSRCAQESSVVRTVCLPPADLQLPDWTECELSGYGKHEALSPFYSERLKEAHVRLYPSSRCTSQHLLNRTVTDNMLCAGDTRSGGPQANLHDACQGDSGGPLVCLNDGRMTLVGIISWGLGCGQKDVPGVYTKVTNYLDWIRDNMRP

Kallikrein-1 = Kallikrein-1 (Homo sapiens, UniProt P06870)
Kallikrein-1, sequence (P06870 whole entry): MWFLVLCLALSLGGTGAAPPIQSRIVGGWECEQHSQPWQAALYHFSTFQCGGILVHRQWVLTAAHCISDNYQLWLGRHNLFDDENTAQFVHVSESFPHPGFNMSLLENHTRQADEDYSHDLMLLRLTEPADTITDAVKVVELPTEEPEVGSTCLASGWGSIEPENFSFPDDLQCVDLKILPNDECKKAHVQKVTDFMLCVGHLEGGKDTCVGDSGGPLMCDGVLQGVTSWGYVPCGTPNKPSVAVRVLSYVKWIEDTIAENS
Description: Binding affinity value against kallikrein

in vivo [7] = settings: Sprague-Dawley, rat, 3 mg/kg
Description: (§1) Clearance value in sprague dawley rat was determined at a dosage of 3 mg/kg

[8] = rat, in vivo, 3 mg/kg
Description: as §1

[9] = target: Urokinase-type plasminogen activator (Homo sapiens, UniProt P00749)
Description: Binding affinity value against urokinase plasminogen activator

[10] = Terminal half life value in sprague dawley rat was determined at a intravenous dosage of 10 mg/kg; assay type: ADME, organism-based; design: dose 10 mg/kg, route intravenous; settings: in vivo
[11] = Area under the curve time curve value in sprague dawley rat was determined at a intravenous dosage of 10 mg/kg; assay type: ADME, organism-based; design: dose 10 mg/kg, route intravenous; settings: in vivo
[12] = Volume distribution value in sprague dawley rat was determined at a intravenous dosage of 10 mg/kg; assay type: ADME, organism-based; design: dose 10 mg/kg, route intravenous; settings: in vivo
in vivo [13] = settings: Sprague-Dawley, rat, iv, 10 mg/kg
Description: Clearance value in sprague dawley rat was determined at a intravenous dosage of 10 mg/kg

Plasminogen, sequence (P00747 97-580 limits assumed): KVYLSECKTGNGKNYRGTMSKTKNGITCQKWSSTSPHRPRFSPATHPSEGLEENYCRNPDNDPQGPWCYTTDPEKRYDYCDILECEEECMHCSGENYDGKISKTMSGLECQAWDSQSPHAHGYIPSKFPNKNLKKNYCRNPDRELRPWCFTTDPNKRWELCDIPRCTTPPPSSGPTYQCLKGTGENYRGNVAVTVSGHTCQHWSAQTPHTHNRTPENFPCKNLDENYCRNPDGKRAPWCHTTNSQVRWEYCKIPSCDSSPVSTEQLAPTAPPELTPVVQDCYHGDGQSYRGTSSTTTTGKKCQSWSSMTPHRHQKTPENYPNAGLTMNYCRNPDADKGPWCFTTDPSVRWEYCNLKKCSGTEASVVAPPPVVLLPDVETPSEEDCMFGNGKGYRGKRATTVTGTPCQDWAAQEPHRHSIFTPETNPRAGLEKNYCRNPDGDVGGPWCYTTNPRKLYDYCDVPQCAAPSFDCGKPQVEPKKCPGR
Plasminogen, sequence (P00747 581-810 limits assumed): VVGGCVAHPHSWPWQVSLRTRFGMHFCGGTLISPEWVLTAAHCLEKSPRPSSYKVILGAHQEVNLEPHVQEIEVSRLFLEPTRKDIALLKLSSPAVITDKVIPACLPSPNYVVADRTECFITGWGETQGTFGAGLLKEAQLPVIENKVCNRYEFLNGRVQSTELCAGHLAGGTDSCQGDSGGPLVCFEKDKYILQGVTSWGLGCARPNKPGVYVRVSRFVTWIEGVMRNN
Trypsin, sequence (P00761 whole entry): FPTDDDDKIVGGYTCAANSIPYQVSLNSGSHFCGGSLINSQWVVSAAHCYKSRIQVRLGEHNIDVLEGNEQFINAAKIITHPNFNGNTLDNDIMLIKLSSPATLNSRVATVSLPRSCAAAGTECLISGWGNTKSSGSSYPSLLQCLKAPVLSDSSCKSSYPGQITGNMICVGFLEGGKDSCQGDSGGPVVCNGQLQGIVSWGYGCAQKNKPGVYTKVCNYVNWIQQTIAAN

| Compound | Ki (Plasminogen) [nM] | Ki (Trypsin) [nM] | Ki [1] [nM] | AUC ([2]; Sprague-Dawley, read-out: AUC) [µM·h] | half-life [3] [h] | bioavailability [4] [%] | Vd [5] [L/kg] | Ki [6] [nM] | Ki (Kallikrein-1) [nM] | clearance (in vivo [7]) [mL/min/kg] | AUC [2] [µM·h] | CI [8] [mL/min/kg] | Ki [9] [nM] | half-life [10] [h] | AUC [11] [µM·h] | Vd [12] [L/kg] | clearance (in vivo [13]) [mL/min/kg] |
| --- | --- | --- | --- | --- | --- | --- | --- | --- | --- | --- | --- | --- | --- | --- | --- | --- | --- |
| CN1CCc2ccc(C3CC3c3ccc4cc(C(=N)N)ccc4c3)cc2C1C1CCCCC1 (stereo not given) | 811 | 31 | 996 | 0.53 | 1.53 | 27 | 18.7 | 18900 | 295 | 142 |  |  |  |  |  |  |  |
| N=C(N)c1ccc2cc(C3CC3c3ccc4c(c3)C(c3ccccc3)=NCC4)ccc2c1 (stereo not given) | 955 | 165 | 2120 |  |  |  |  | 7040 | 336 |  |  |  |  |  |  |  |  |
| N=C(N)c1ccc2cc(C(=O)Nc3ccccc3)ccc2c1 |  | 325 | 5640 |  | 2.1 | 3 | 8.5 |  |  |  | 8.2 | 46.7 |  |  |  |  |  |
| N=C(N)c1ccc2cc(C(=O)Nc3ccccc3)cc(Nc3ncccn3)c2c1 |  | 40 | 170 | 0.14 | 0.6 | 0 | 37.1 |  |  | 715 |  |  | 200 |  |  |  |  |
| N=C(N)c1ccc2cc(C3CC3c3ccccc3)ccc2c1 (stereo not given) | 3520 | 720 | 1890 |  |  | 30 | 23 | 69100 | 2480 |  | 11.6 | 36 |  | 7.4 |  |  |  |
| CC(C)C1=NCCc2ccc([C@H]3CC3c3ccc4cc(C(=N)N)ccc4c3)cc21 (stereo not given in full) | 1480 | 30 | 1790 |  |  |  |  | 10400 | 640 |  |  |  |  |  |  |  |  |
| N=C(N)c1ccc2cc(C3CC3c3ccccc3)cc(Nc3ncccn3)c2c1 (stereo not given) | 243 | 54 | 48 | 0.23 | 0.33 | 0 | 10 | 5050 | 54 | 352 |  |  | 5 |  |  |  |  |
| N=C(N)c1ccc2cc(C3CC3c3ccccc3)cc(Br)c2c1 (stereo not given) | 239 | 334 | 503 | 2.72 | 4.71 | 17 | 14.3 | 30800 | 379 | 35 |  |  | 622 |  |  |  |  |
| CC(C)C1=NCCc2cc(C3CC3c3ccc4cc(C(=N)N)ccc4c3)ccc21 (stereo not given) |  |  |  |  | 0.33 | 0 |  |  |  |  |  |  |  |  | 0.27 | 7.9 | 273 |
| CC1c2cc(C3CC3c3ccc4cc(C(=N)N)ccc4c3)ccc2CCN1C (stereo not given) |  |  |  | 0.69 | 0.28 | 0 | 2.9 |  |  | 121 |  |  |  |  |  |  |  |
| CC(C)C1c2cc(C3CC3c3ccc4cc(C(=N)N)ccc4c3)ccc2CCN1C (stereo not given) | 1300 | 90 | 1800 | 0.37 | 0.55 | 55 | 10.3 | 6230 | 576 | 216 |  |  |  |  |  |  |  |
| N=C(N)c1ccc2cc(C(=O)Nc3ccccc3)cc(-c3ccoc3)c2c1 |  | 45 | 132 |  | 3 | 0 | 21.7 |  |  |  | 5 | 83 |  |  |  |  |  |
| N=C(N)c1ccc2cc(/C=C/c3ccccc3)cc(Br)c2c1 | 1350 | 480 | 920 |  |  |  |  | 13400 | 770 |  |  |  | 820 |  |  |  |  |
